The source of these data is US20180305332A1, “Bispiperidinyl Derivatives as Liver X Receptor Beta Agonists, Compositions, and Their Use” (Merck Sharp & Dohme Corp., priority 2015, published 2018).

Experiment [1] has as its target T1, GST tagged LXRbeta LBD (ligand binding domain) (Homo sapiens, UniProt P55055).
T1 construct: purchased Invitrogen pv4658.pps
T1 sequence (P55055 222-460 limits assumed): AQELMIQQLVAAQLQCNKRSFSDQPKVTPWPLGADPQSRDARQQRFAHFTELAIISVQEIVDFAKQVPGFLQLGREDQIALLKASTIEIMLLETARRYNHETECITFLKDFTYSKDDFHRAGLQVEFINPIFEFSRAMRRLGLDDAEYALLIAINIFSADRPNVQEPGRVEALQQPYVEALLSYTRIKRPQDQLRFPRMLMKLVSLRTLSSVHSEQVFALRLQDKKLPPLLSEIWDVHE
Kind of experiment: LanthaScreen TR-FRET Liver X Receptor Coactivator Assay, LXR beta-LBD. The class given is biochemical. The conditions noted are these: relative to reference T0901317; for EC50: Inflection Point (potency), co-activator recruitment, read-out: LXR beta IP; for Emax: activity at max dose (efficacy), read-out: LXR beta act @ max dose (%). The procedure, abridged: (§1)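 Cmpd + LBD → add fluorescein coactivator peptide/Tb-anti-GST Ab mix → incubate RT → TR-FRET readout. IP and Emax referenced to T0901317 (dual LXR agonist).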
(In general: Time-resolved FRET reads energy transfer from a long-lived donor to a nearby acceptor.)

For experiment [2], the target named is T2, GST tagged LXRalpha LBD (ligand binding domain) (Homo sapiens, UniProt Q13133).
T2 construct: purchased Invitrogen pv4655
T2 sequence (Q13133 209-447 limits assumed): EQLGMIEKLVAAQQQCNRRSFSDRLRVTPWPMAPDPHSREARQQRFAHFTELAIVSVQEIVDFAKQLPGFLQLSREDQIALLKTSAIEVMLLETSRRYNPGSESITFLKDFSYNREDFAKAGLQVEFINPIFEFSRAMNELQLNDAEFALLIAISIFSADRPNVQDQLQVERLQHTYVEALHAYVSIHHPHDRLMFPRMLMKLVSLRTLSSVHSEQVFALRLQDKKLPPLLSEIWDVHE
The experiment can be described thus: LanthaScreen TR-FRET Liver X Receptor Coactivator Assay, LXR alpha-LBD. Type of experiment: biochemical. The conditions noted are these: relative to reference T0901317; for EC50 / LXR alpha IP (nM): Inflection Point (potency), co-activator recruitment; for EC50: read-out: LXR alpha IP; for Emax: activity at max dose (efficacy), read-out: LXR alpha act @ max dose (%). The method, boiled down: as §1

Turning to `CN(C)C(=O)c1ccc(N2CCC(C3CCN(C(=O)C4(c5cc(F)cc(F)c5)CCCC4)CC3)CC2)cc1Cl` [Example A-79, 2-chloro-4-(1′-{[1-(3,5-difluorophenyl)cyclopentyl]carbonyl}-4,4′-bipiperidin-1-yl)-N,N-dimethylbenzamide], the EC50 amounted to 216 nM in experiment [1] and 2540 nM in experiment [2]. For the same molecule, the Emax stood at 125% in experiment [1] and 35% in experiment [2].

For `CC(=O)Oc1ccc(C(C)(C)C(=O)N2CCC(C3CCN(c4ccc(C(=O)N(C)C)c(Cl)c4)CC3)CC2)cc1` [Example A-59, 4-(2-{1′-[3-chloro-4-(dimethylcarbamoyl)phenyl]-4,4′-bipiperidin-1-yl}-1,1-dimethyl-2-oxoethyl)phenyl acetate], the EC50 in experiment [1] amounted to 91 nM; in experiment [2] it was 2630 nM. Also, the figures for the Emax in experiment [1] and in experiment [2] were 106% and 54%, respectively.

As for `Cc1ccc(C2(C(=O)N3CCC(C4CCN(c5ccc(C(=O)N(C)C)c(Cl)c5)CC4)CC3)CCC2)cc1` [Example A-72, 2-chloro-N,N-dimethyl-4-(1′-{[1-(4-methylphenyl)cyclobutyl]carbonyl}-4,4′-bipiperidin-1-yl)benzamide], in experiment [1], the EC50 was determined as 112 nM and the Emax worked out at 96%. Moreover, in experiment [2], the EC50 is 1260 nM and the Emax worked out at 30%.

Regarding `CC(C)(C)OC(=O)NC1CN(C(=O)c2ccc(N3CCC(C4CCN(C(=O)OC(C)(C)C)CC4)CC3)cc2Cl)C1` [Example E-68, tert-butyl 1′-[4-({3-[(tert-butoxycarbonyl)amino]azetidin-1-yl}carbonyl)-3-chlorophenyl]-4,4′-bipiperidine-1-carboxylate], the EC50 in experiment [1] was 29 nM; in experiment [2], 367 nM. For the same molecule, the Emax was 92% in experiment [1] and 64% in experiment [2].

As for `CN(C)C(=O)c1ccc(N2CCC(C3CCN(C(=O)C4(c5ccccc5)CC4)CC3)CC2)cc1Cl` [Example A-39, 2-chloro-N,N-dimethyl-4-{1′-[(1-phenylcyclopropyl)carbonyl]-4,4′-bipiperidin-1-yl}benzamide], in experiment [1], the EC50 was 140 nM and the Emax worked out at 101%. Further, in experiment [2], the EC50 turned out to be 5510 nM and the Emax turned out to be 32%.

`O=C(c1ccc(N2CCC(C3CCN(C(=O)[C@](O)(c4ccccc4)C(F)(F)F)CC3)CC2)cc1Cl)N1CC(O)C1` [Example E-36, 1-[(2-chloro-4-{1′-[(2R)-3,3,3-trifluoro-2-hydroxy-2-phenylpropanoyl]-4,4′-bipiperidin-1-yl}phenyl)carbonyl]azetidin-3-ol]: in experiment [1], the EC50 turned out to be 453 nM and the Emax worked out at 74%. In experiment [2], the EC50 came out at 3820 nM and the Emax was found to be 23%.

With `CN(C)C(=O)c1ccc(N2CCC(C3CCN(C(=O)C(O)(C4CCC4)C(F)(F)F)CC3)CC2)cc1Cl` (stereo not shown) [Example A-10, 2-chloro-4-[1′-(2-cyclobutyl-3,3,3-trifluoro-2-hydroxypropanoyl)-4,4′-bipiperidin-1-yl]-N,N-dimethylbenzamide], in experiment [1], the EC50 worked out at 30 nM and the Emax amounted to 109%. Also, in experiment [2], the EC50 was 756 nM and the Emax is 59%.

For the molecule `COC(=O)C1CN(C(=O)c2ccc(N3CCC(C4CCN(C(=O)[C@](O)(c5ccccc5)C(F)(F)F)CC4)CC3)cc2Cl)C1` [Example E-32, methyl 1-[(2-chloro-4-{1′-[(2R)-3,3,3-trifluoro-2-hydroxy-2-phenylproanoyl]-4,4′-bipiperidin-1-yl}phenyl)carbonyl]azetidine-3-carboxylate], in experiment [1], the EC50 turned out to be 144 nM and the Emax is 57%. In experiment [2], the EC50 amounted to 2260 nM and the Emax came to 22%.

Consider `CC(C)C(O)(C(=O)N1CCC(C2CCN(c3ccc(C(=O)N4CCOC[C@H]4C)c(Cl)c3)CC2)CC1)C(F)(F)F` (stereo partly drawn) [Example E-10, 2-{[1′-(3-chloro-4-{[(3R)-3-methylmorpholin-4-yl]carbonyl}phenyl)-4,4′-bipiperidin-1-yl]carbonyl}-1,1,1-trifluoro-3-methylbutan-2-ol], for which, in experiment [1], the EC50 came out at 219 nM and the Emax is 72%. In addition, in experiment [2], the EC50 stood at 1260 nM and the Emax worked out at 32%.

As for `CN(C)C(=O)c1ccc(N2CCC(C3CCN(C(=O)C(F)(F)c4ccccc4)CC3)CC2)cc1Cl` [Example A-64, 2-chloro-4-{1′-[difluoro(phenyl)acetyl]-4,4′-bipiperidin-1-yl}-N,N-dimethylbenzamide], the values for the EC50 in experiment [1] and in experiment [2] were 54 nM and 936 nM, respectively. Moreover, the results for the Emax in experiment [1] and in experiment [2] were 144% and 74%, respectively.

With `CN(C)C(=O)c1ccc(N2CCC(C3CCN(C(=O)c4c(F)cccc4C(F)(F)F)CC3)CC2)cc1Cl` [Example A-25, 2-chloro-4-(1′-{[2-fluoro-6-(trifluoromethyl)phenyl]carbonyl}-4,4′-bipiperidin-1-yl)-N,N-dimethylbenzamide], in experiment [1], the EC50 amounted to 113 nM and the Emax was found to be 109%. For the same molecule, in experiment [2], the EC50 was found to be 3540 nM and the Emax turned out to be 54%.

For `O=C(c1ccc(N2CCC(C3CCN(C(=O)[C@](O)(c4ccccc4)C(F)(F)F)CC3)CC2)cc1Cl)N1CCC(O)C1` (stereo partly drawn) [Example E-24, 1-[(2-chloro-4-{1′-[(2R)-3,3,3-trifluoro-2-hydroxy-2-phenylpropanoyl]-4,4′-bipiperidin-1-yl}phenyl)carbonyl]pyrrolidin-3-ol], in experiment [1], the EC50 was 323 nM and the Emax amounted to 76%. In experiment [2], the EC50 was 3090 nM and the Emax amounted to 27%.

Regarding `Cc1ccccc1C1(C(=O)N2CCC(C3CCN(c4ccc(C(=O)N(C)C)c(Cl)c4)CC3)CC2)CCC1` [Example A-75, 2-chloro-N,N-dimethyl-4-(1′-{[1-(2-methylphenyl)cyclobutyl]carbonyl}-4,4′-bipiperidin-1-yl)benzamide], in experiment [1], the EC50 is 18 nM and the Emax is 118%. Further, in experiment [2], the EC50 was determined as 446 nM and the Emax came to 65%.

For the molecule `C=C(C)CC(O)(C(=O)N1CCC(C2CCN(c3ccc(C(=O)N(C)C)c(Cl)c3)CC2)CC1)C(F)(F)F` (stereo not shown) [Example A-56, 2-chloro-4-{1′-[2-hydroxy-4-methyl-2-(trifluoromethyl)pent-4-enoyl]-4,4′-bipiperidin-1-yl}-N,N-dimethylbenzamide], in experiment [1], the EC50 amounted to 64 nM and the Emax was 120%. In experiment [2], the EC50 was 1910 nM and the Emax worked out at 68%.

On to `CN(C)C(=O)c1ccc(N2CCC(C3CCN(C(=O)C4(c5ccccc5Cl)CCCC4)CC3)CC2)cc1Cl` [Example A-94, 2-chloro-4-(1′-{[1-(2-chlorophenyl)cyclopentyl]carbonyl}-4,4′-bipiperidin-1-yl)-N,N-dimethylbenzamide], for which, in experiment [1], the EC50 is 13 nM and the Emax amounted to 124%. In experiment [2], the EC50 came to 250 nM and the Emax was found to be 67%.

As to `CCC1CCN(C(=O)c2ccc(N3CCC(C4CCN(C(=O)[C@](O)(c5ccccc5)C(F)(F)F)CC4)CC3)cc2Cl)C1` (stereo partly drawn) [Example E-29, (2R)-3-(1′-{3-chloro-4-[(3-ethylpyrrolidin-1-yl)carbonyl]phenyl}-4,4′-bipiperidin-1-yl)-1,1,1-trifluoro-3-oxo-2-phenylpropan-2-ol], in experiment [1], the EC50 worked out at 383 nM and the Emax was found to be 63%. In experiment [2], the “LXR alpha IP (nM)” value is given as “NO IP” and the Emax is 13%.

In the case of `CC(C)CC(O)(C(=O)N1CCC(C2CCN(c3ccc(C(=O)N(C)C)c(Cl)n3)CC2)CC1)C(F)(F)F` (stereo not shown) [Example B-7, 2-chloro-6-{1′-[2-hydroxy-4-methyl-2-(trifluoromethyl)pentanoyl]-4,4′-bipiperidin-1-yl}-N,N-dimethylpyridine-3-carboxamide], in experiment [1], the EC50 was 72 nM and the Emax came to 127%. In experiment [2], the EC50 is 1430 nM and the Emax is 55%.

As for `CN(C)C(=O)c1ccc(N2CCC(C3CCN(C(=O)C(O)(c4ccccc4)C(F)(F)F)CC3)CC2)nc1Cl` (stereo not shown) [Example B-13, 2-chloro-N,N-dimethyl-6-[1′-(3,3,3-trifluoro-2-hydroxy-2-phenylpropanoyl)-4,4′-bipiperidin-1-yl]pyridine-3-carboxamide], in experiment [1], the EC50 turned out to be 291 nM and the Emax was 95%. In addition, in experiment [2], the “LXR alpha IP (nM)” value was “NO IP” and the Emax came out at 28%.

As to `C=C(C)C(O)(C(=O)N1CCC(C2CCN(c3ccc(C(=O)N(C)C)c(Cl)c3)CC2)CC1)C(F)(F)F` (stereo not shown) [Example A-31, 2-chloro-4-{1′-[2-hydroxy-3-methyl-2-(trifluoromethyl)but-3-enoyl]-4,4′-bipiperidin-1-yl}-N,N-dimethylbenzamide], in experiment [1], the EC50 is 61 nM and the Emax is 86%. In addition, in experiment [2], the EC50 turned out to be 362 nM and the Emax is 27%.
